Measured values reported in patent US20250215039A1, “NUCLEOSIDES FOR TREATING CANCER” (PRIMEFOUR THERAPEUTICS, INC., priority 2022, published 2025).
pIC50: −log10 of the molar value. Read-outs that look alike come from different tables or passages of the source.

System: cancer cell lines
Test: Cancer cell proliferation activity (CellTiterGlo, 72 h)
Type: cell-based
Details: 72 h, 72 h, read-out: IC50
Description: Dose response relationships on cell proliferation was assessed for representative Compounds of the Disclosure on cancer cell lines. Briefly, compound treatment of cells started one day after seeding with a final DMSO concentration of 0.1%, and was performed by nanodrop-dispensing using a Tecan Dispenser. 0.1% DMSO (solvent) and Staurosporine (10 μM) served as high control (100% viability) and low control (0% viability), respectively.
Cells were cultured in the appropriate media. For the assays, cells were seeded in white cell culture-treated flat and clear bottom multiwell plates and incubated at 37° C. overnight before compound was added. After incubation for 72 h at 37° C. at 5% or 10% CO2 dependent on the medium, cell plates were equilibrated to room temperature for one hour, CellTiterGlo reagent (Promega) was added and luminescence was measured approximately an hour later using a luminometer.
Raw data were converted into percent cell viability relative to the high and low control, which were set to 100% and 0%, respectively.
The IC50 values are summarized in Tables 9A-1, Table 10A, and Table 10B.

pIC50 (5637 cell line (bladder)): 6.13 | pIC50 (CLS439 cell line (bladder)): < 4.30 | pIC50 (HS729 cell line (muscle)): 5.86 | pIC50 (HSS78T cell line): < 4.30 | pIC50 (JAR cell line (placenta)): 5.23 | pIC50 (SKMELS cell line): 5.29 | pIC50 (Homo sapiens, 22Rv1, 72 h, 22RV1 cell line (prostate)): 6.51 | pIC50 (Homo sapiens, 786-0, 72 h, 786O cell line (kidney)): 5.60 | pIC50 (Homo sapiens, A204, 72 h, A204 cell line (muscle)): 5.59 | pIC50 (Homo sapiens, A549, 72 h, A549 cell line): 6.28 | pIC50 (Homo sapiens, A673, 72 h, A673 cell line (bone)): 5.55 | pIC50 (Homo sapiens, A2780, 72 h, A2780 cell line (ovary)): 5.46 | pIC50 (Homo sapiens, A-375, 72 h, A375 cell line (skin)): 5.45 | pIC50 (Homo sapiens, A-431, 72 h, A431 cell line (skin)): 7.30 | pIC50 (Homo sapiens, ACHN, ACHN cell line (kidney)): 6.57 | pIC50 (Homo sapiens, ASPC1, 72 h, ASPC1 cell line (pancreas)): 6.80 | pIC50 (Homo sapiens, BT-20, 72 h, BT20 cell line (breast)): < 4.30 | pIC50 (Homo sapiens, BXPC-3, 72 h, BXPC3 cell line (pancreas)): 7.70 | pIC50 (Homo sapiens, C-33-A, C33A cell line (cervical)): 5.80 | pIC50 (Homo sapiens, CAKI-1, 72 h, CAKI1 cell line (kidney)): < 4.30 | pIC50 (Homo sapiens, COLO 205, 72 h, COLO205 cell line (colon)): 6.51 | pIC50 (Homo sapiens, COLO-678, 72 h, COLO678 cell line (colon)): < 4.30 | pIC50 (Homo sapiens, Ca-Ski, CASKI cell line (cervical)): 5.61 | pIC50 (Homo sapiens, Caco-2, 72 h, CACO2 cell line (colon)): < 4.30 | pIC50 (Homo sapiens, Calu-6, 72 h, CALU6 cell line (lung)): 5.77 | pIC50 (Homo sapiens, DLD-1, 72 h, DLD1 cell line (colon)): 5.43 | pIC50 (Homo sapiens, DU-145, 72 h, DU145 cell line (prostate)): 6.00 | pIC50 (Homo sapiens, EFO-21, 72 h, EFO21 cell line (ovary)): 5.56 | pIC50 (Homo sapiens, EJ-28, 72 h, EJ28 cell line (bladder)): 5.76 | pIC50 (Homo sapiens, Granta-519, 72 h, GRANTA-519 cell line (hematological)): 6.19 | pIC50 (Homo sapiens, HCT-15, 72 h, HCT15 cell line (colon)): 5.53 | pIC50 (Homo sapiens, HCT-116, 72 h, HCT116 cell line (colon)): 5.26 | pIC50 (Homo sapiens, HEK293, 72 h, HEK293 cell line (kidney)): 5.36 | pIC50 (Homo sapiens, HL-60, 72 h, HL-60 cell line (hematological)): 5.41 | pIC50 (Homo sapiens, HT-29, 72 h, HT29 cell line (colon)): 6.28 | pIC50 (Homo sapiens, HT-1080, 72 h, HT1080 cell line (connective tissue)): 5.57 | pIC50 (Homo sapiens, HeLa, HELA cell line (cervical)): < 4.30 | pIC50 (Homo sapiens, HepG2, 72 h, HEPG2 cell line (liver)): 6.11 | pIC50 (Homo sapiens, IGROV-1, 72 h, IGROV1 cell line (ovary)): 5.52 | pIC50 (Homo sapiens, IMR-90, 72 h, IMR.90 cell line): < 4.30 | pIC50 (Homo sapiens, J82, 72 h, J82 cell line (bladder)): 6.00 | pIC50 (Homo sapiens, JEG-3, 72 h, JEG3 cell line (placenta)): 5.93 | pIC50 (Homo sapiens, JIMT-1, 72 h, JIMT1 cell line (breast)): 5.14 | pIC50 (Homo sapiens, K562, 72 h, K-562 cell line (hematological)): 5.23 | pIC50 (Homo sapiens, Kasumi 1, 72 h, KASUMI-1 cell line (hematological)): < 4.30 | pIC50 (Homo sapiens, L-363, 72 h, L-363 cell line (hematological)): 5.55 | pIC50 (Homo sapiens, LoVo, LOVO cell line (colon)): 6.29 | pIC50 (Homo sapiens, MCF7, 72 h, MCF7 cell line (breast)): 6.77 | pIC50 (Homo sapiens, MDA-MB-231, 72 h, MDAMB231 cell line (breast)): < 4.30 | pIC50 (Homo sapiens, MDA-MB-435, 72 h, MDAMB435 cell line (skin)): 5.61 | pIC50 (Homo sapiens, MDA-MB-436, 72 h, MDAMB436 cell line (breast)): 6.38 | pIC50 (Homo sapiens, MDA-MB-468, 72 h, MDAMB468 cell line (breast)): 5.54 | pIC50 (Homo sapiens, MG-63, 72 h, MG63 cell line (bone)): 5.74 | pIC50 (Homo sapiens, MHH-ES-1, 72 h, MHHES1 cell line (bone)): 5.64 | pIC50 (Homo sapiens, MIA PaCa-2, 72 h, MIAPACA2 cell line (pancreas)): 5.61 | pIC50 (Homo sapiens, MINO, MINO cell line (hematological)): 6.24 | pIC50 (Homo sapiens, MV4-11, 72 h, MV4-11 cell line (hematological)): 6.74 | pIC50 (Homo sapiens, NCI-H23, 72 h, NCI-H23 cell line (lung)): 5.85 | pIC50 (Homo sapiens, NCI-H82, 72 h, NCIH82 cell line (lung)): 5.34 | pIC50 (Homo sapiens, NCI-H292, 72 h, NCIH292 cell line (lung)): < 4.30 | pIC50 (Homo sapiens, NCI-H460, 72 h, NCIH460 cell line (lung)): 6.22 | pIC50 (Homo sapiens, OVCAR-3, 72 h, OVCAR3 cell line (ovary)): 5.23 | pIC50 (Homo sapiens, OVCAR-4, 72 h, OVCAR4 cell line (ovary)): 5.55 | pIC50 (Homo sapiens, PANC-1, 72 h, PANC1 cell line (pancreas)): 5.30 | pIC50 (Homo sapiens, PC-3, 72 h, PC3 cell line (prostate)): 5.09 | pIC50 (Homo sapiens, PLC-PRF-5, 72 h, PLCPRF5 cell line (liver)): 5.76 | pIC50 (Homo sapiens, Panc1005, 72 h, PANC1005 cell line (pancreas)): < 4.30 | pIC50 (Homo sapiens, RD, RD cell line (muscle)): 5.46 | pIC50 (Homo sapiens, Ramos, RAMOS cell line (hematological)): 5.50 | pIC50 (Homo sapiens, SAOS-2, 72 h, SAOS2 cell line (bone)): 5.94 | pIC50 (Homo sapiens, SF-268, 72 h, SF268 cell line (brain)): 5.97 | pIC50 (Homo sapiens, SF-295, 72 h, SF295 cell line (brain)): 5.92 | pIC50 (Homo sapiens, SK-BR-3, 72 h, SKBR3 cell line (breast)): 7.40 | pIC50 (Homo sapiens, SK-HEP1, 72 h, SKHEP1 cell line (liver)): 5.87 | pIC50 (Homo sapiens, SK-LMS-1, 72 h, SKLMS1 cell line (uterus)): 5.94 | pIC50 (Homo sapiens, SK-MEL-28, 72 h, SKMEL28 cell line (skin)): < 4.30 | pIC50 (Homo sapiens, SK-N-AS, SKNAS cell line (brain)): < 4.30 | pIC50 (Homo sapiens, SK-N-SH, SKNSH cell line (brain)): < 4.30 | pIC50 (Homo sapiens, SK-OV-3, 72 h, SKOV3 cell line (ovary)): 6.09 | pIC50 (Homo sapiens, SNB-75, 72 h, SNB75 cell line (brain)): < 4.30 | pIC50 (Homo sapiens, SU-DHL10, 72 h, SU-DHL-10 cell line (hematological)): 5.31 | pIC50 (Homo sapiens, SU-DHL-6, 72 h, SU-DHL-6 cell line (hematological)): 5.26 | pIC50 (Homo sapiens, SW-620, 72 h, SW620 cell line (colon)): 6.41 | pIC50 (Homo sapiens, T-24, 72 h, T24 cell line (bladder)): 5.55 | pIC50 (Homo sapiens, TE-671, 72 h, TE671 cell line (muscle)): 5.23 | pIC50 (Homo sapiens, THP-1, 72 h, THP-1 cell line (hematological)): 5.77 | pIC50 (Homo sapiens, U2OS, U2OS cell line (bone)): < 4.30 | pIC50 (Homo sapiens, U-87 MG, U87MG cell line (brain)): < 4.30 | pIC50 (Homo sapiens, UMUC3, 72 h, UMUC3 cell line (bladder)): 5.61 | pIC50 (Homo sapiens, UO-31, 72 h, UO31 cell line (kidney)): < 4.30 | pIC50 (Homo sapiens, WSU-NHL, WSU-NHL cell line (hematological)): 6.21 | pIC50 (MT-3, 72 h, MT3 cell line (breast)): 6.05 | pIC50 (NCI-H358M, NCIH358M cell line (lung)): 5.87 | pIC50 (PBMC, PBMC (hematological)): 5.30 | pIC50 (RD-ES, RDES cell line (bone)): 5.89
Compound: C[C@]1(CO)O[C@@H](n2cc(F)c(=O)[nH]c2=O)C[C@@H]1O [Cpd. No. 105, 5-fluoro-1-((2R,4S,5R)-4-hydroxy-5-(hydroxymethyl)-5-methyltetrahydrofuran-2-yl)pyrimidine-2,4(1H,3H)-dione]
